One may read the IC50 as the concentration at which inhibition is half-maximal.

Among the data in patent US20260146046A1, “BICYCLIC FERROPORTIN INHIBITORS” (Vifor (International) AG, priority 2022, published 2026) are IC50 values, retold here.

Where a name gives a salt, the structure may show the parent alone.

The assay has as its target T1, ferroportin (Fpn) (Mus musculus, UniProt Q9JHI9).
T1 construct: endogenous in cells; host or cells: J774 mouse macrophage cell line, induced with Fe(III)NTA
T1 sequence (Q9JHI9 1-570): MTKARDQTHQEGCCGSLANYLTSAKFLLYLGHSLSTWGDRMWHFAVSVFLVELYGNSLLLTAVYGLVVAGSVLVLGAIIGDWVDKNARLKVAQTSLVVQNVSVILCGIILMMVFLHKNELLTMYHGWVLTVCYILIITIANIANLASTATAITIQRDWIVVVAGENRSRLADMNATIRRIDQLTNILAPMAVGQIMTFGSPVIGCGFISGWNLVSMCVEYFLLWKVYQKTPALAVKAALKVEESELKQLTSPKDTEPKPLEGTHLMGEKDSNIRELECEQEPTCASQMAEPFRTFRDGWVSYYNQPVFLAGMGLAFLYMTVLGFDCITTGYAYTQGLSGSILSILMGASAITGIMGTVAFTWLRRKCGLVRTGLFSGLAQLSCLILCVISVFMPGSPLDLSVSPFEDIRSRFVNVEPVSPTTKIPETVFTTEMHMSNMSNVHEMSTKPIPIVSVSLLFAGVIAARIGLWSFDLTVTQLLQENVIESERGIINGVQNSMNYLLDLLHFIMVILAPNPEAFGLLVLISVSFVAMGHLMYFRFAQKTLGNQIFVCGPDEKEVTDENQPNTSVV
Description: Hepcidin Internalization Assay (J774). It is filed as cell-based. The conditions noted are these: J774 cells, 25 nM TMR-hepcidin, 2 hours; average of multiple measurements; read-out: Average (AVE) IC50 of Fpn inhibitors in the hepcidin internalization assay. An excerpt:
This cellular assay allows quantification of the binding of hepcidin to ferroportin (Fpn) through microscopic detection of internalization of a fluorescently labeled hepcidin into J774 cells. […] Binding of hepcidin to Fpn triggers internalization and degradation of both hepcidin and Fpn. […] Therefore, microscopic detection of cell-associated TMR fluorescence is a measure of hepcidin binding to Fpn and internalization of hepcidin and Fpn. If TMR-hepcidin is prevented from binding to Fpn, cellular TMR fluorescence remains low (Durrenberger et al, 2013). The effect of small molecular weight Fpn inhibitor compounds in this assay was evaluated in vitro as described below. […] Cat. 655090) and grown at 37° C. with 5% CO2. After overnight incubation, cells were washed 3 times with pre-warmed DMEM w/o phenol red, 30 μl/well of DMEM w/o phenol red was added after the final wash and 10 μl/well of dilution series of test compounds were added in triplicates. […] Cells were incubated in a total volume of 50 μl at 37° C. with 5% CO2 for 2 hours, then Hoechst 33342 dye was added to a final concentration of 0.5 μg/ml to stain nuclei and further incubated for 10 min. at 37° C. with 5% CO2. […] After removal of the paraformaldehyde solution, cells were washed 3 times with PBS leaving 100 μl per well and the plates were sealed with foil plate seal. […] The acquired image data was analysed with the […] analysis software. […] IC50 values were calculated with the Sum(Mean) raw data using “log(inhibitor) vs. response” curve fitting of Prism 5 software (GraphPad Software Inc., version 5.02). For each data set the fit of the “log(inhibitor) vs. response (three parameters)” model was compared to the fit of the “log(inhibitor) vs. response-Variable slope (four parameters)” model and the IC50 data of the preferred model was used.

For `COCCn1c(CCNCCc2nc3c(NCc4ncccc4F)nccc3o2)nc2ccccc21` [Example Compound No. 1, N-((3-fluoropyridin-2-yl)methyl)-2-(2-((2-(1-(2-methoxyethyl)-1H-benzo[d]imidazol-2-yl)ethyl)amino)ethyl)oxazolo[4,5-c]pyridin-4-amine], the IC50 came to 9 nM.
The result for `Fc1cccnc1CNc1nccc2oc(CCNCCc3nc4ccccc4n3CC3CC3)nc12` [Example Compound No. 2, 2-(2-((2-(1-(cyclopropylmethyl)-1H-benzo[d]imidazol-2-yl)ethyl)amino)ethyl)-N-((3-fluoropyridin-2-yl)methyl)oxazolo[4,5-c]pyridin-4-amine] reads 15 nM; that for `COCCOCCn1c(CCNCCc2nc3c(NCc4ncccc4F)nccc3o2)nc2ccccc21` [Example Compound No. 3, N-((3-fluoropyridin-2-yl)methyl)-2-(2-((2-(1-(2-(2-methoxyethoxy)ethyl)-1H-benzo[d]imidazol-2-yl)ethyl)amino)ethyl)oxazolo[4,5-c]pyridin-4-amine], 9 nM.
The result for `CC(C)OCCn1c(CCNCCc2nc3c(NCc4ncccc4F)nccc3o2)nc2ccccc21` [Example Compound No. 4, N-((3-fluoropyridin-2-yl)methyl)-2-(2-((2-(1-(2-isopropoxyethyl)-1H-benzo[d]imidazol-2-yl)ethyl)amino)ethyl)oxazolo[4,5-c]pyridin-4-amine] reads 4 nM; that for `COCCn1c(CCN2CC(c3nc4c(NCc5ncccc5F)nccc4o3)C2)nc2ccccc21` [Example Compound No. 5, N-((3-fluoropyridin-2-yl)methyl)-2-(1-(2-(1-(2-methoxyethyl)-1H-benzo[d]imidazol-2-yl)ethyl)azetidin-3-yl)oxazolo[4,5-c]pyridin-4-amine], 7 nM; that for `COCCOCCn1c(CCN2CC(c3nc4c(NCc5ncccc5F)nccc4o3)C2)nc2ccccc21` [Example Compound No. 6, N-((3-fluoropyridin-2-yl)methyl)-2-(1-(2-(1-(2-(2-methoxyethoxy)ethyl)-1H-benzo[d]imidazol-2-yl)ethyl)azetidin-3-yl)oxazolo[4,5-c]pyridin-4-amine], 11 nM.
For the compound `COCCn1c(CCNCCc2nc3c(NCc4ncccc4F)nccc3o2)nc2cc3c(cc21)OCCO3` [Example Compound No. 7, N-((3-fluoropyridin-2-yl)methyl)-2-(2-((2-(1-(2-methoxyethyl)-6,7-dihydro-1H-[1,4]dioxino-[2′,3′:4,5]benzo[1,2-d]imidazol-2-yl)ethyl)amino)ethyl)oxazolo[4,5-c]pyridin-4-amine], the IC50 is 83 nM.
The result for `Fc1cccnc1CNc1nccc2oc(CCNCCc3nc4ccccc4n3CCN3CCOCC3)nc12` [Example Compound No. 8, N-((3-fluoropyridin-2-yl)methyl)-2-(2-((2-(1-(2-morpholinoethyl)-1H-benzo[d]imidazol-2-yl)ethyl)amino)ethyl)oxazolo[4,5-c]pyridin-4-amine] reads 7 nM; that for `Fc1cccnc1CNc1nccc2oc(CCNCCc3nc4cc5c(cc4n3CCN3CCOCC3)OCCO5)nc12` [Example Compound No. 9, N-((3-fluoropyridin-2-yl)methyl)-2-(2-((2-(1-(2-morpholinoethyl)-6,7-dihydro-1H-[1,4]dioxino[2′,3′:4,5]benzo[1,2-d]imidazol-2-yl)ethyl)amino)ethyl)oxazolo[4,5-c]pyridin-4-amine], 827 nM; that for `Fc1cccnc1CNc1nccc2oc(CCNCCc3nc4ccccc4n3Cc3ccccc3)nc12` [Example Compound No. 10, 2-(2-((2-(1-benzyl-1H-benzo[d]imidazol-2-yl)ethyl)amino)ethyl)-N-((3-fluoropyridin-2-yl)methyl)oxazolo[4,5-c]pyridin-4-amine], 8 nM.
The figure for `COc1cccc(Cn2c(CCNCCc3nc4c(NCc5ncccc5F)nccc4o3)nc3ccccc32)c1` [Example Compound No. 11, N-((3-fluoropyridin-2-yl)methyl)-2-(2-((2-(1-(3-methoxybenzyl)-1H-benzo[d]-imidazol-2-yl)ethyl)amino)ethyl)oxazolo[4,5-c]pyridin-4-amine] is 5 nM; for `Fc1cccnc1CNc1nccc2oc(CCNCCc3nc4ccccc4n3Cc3cccc(Cl)c3)nc12` [Example Compound No. 12, 2-(2-((2-(1-(3-chlorobenzyl)-1H-benzo[d]imidazol-2-yl)ethyl)amino)ethyl)-N-((3-fluoropyridin-2-yl)methyl)oxazolo[4,5-c]pyridin-4-amine] it is 28 nM.
As to `Fc1cccnc1CNc1nccc2oc(CCNCCc3nc4cc5c(cc4n3CC3CC3)OCCO5)nc12` [Example Compound No. 13, 2-(2-((2-(1-(cyclopropylmethyl)-6,7-dihydro-1H-[1,4]dioxino[2′,3′:4,5]benzo[1,2-d]-imidazol-2-yl)ethyl)amino)ethyl)-N-((3-fluoropyridin-2-yl)methyl)oxazolo[4,5-c]pyridin-4-amine], the IC50 turned out to be 5 nM.
The result for `CN(C)CCn1c(CCNCCc2nc3c(NCc4ncccc4F)nccc3o2)nc2cc3c(cc21)OCCO3` [Example Compound No. 14, 2-(2-((2-(1-(2-(dimethylamino)ethyl)-6,7-dihydro-1H-[1,4]dioxino[2′,3′:4,5]benzo[1,2-d]imidazol-2-yl)ethyl)amino)ethyl)-N-((3-fluoropyridin-2-yl)methyl)oxazolo[4,5-c]pyridin-4-amine] reads 810 nM.
The figure for `Fc1cccnc1CNc1nccc2oc(CCNCCc3nc4ccccc4n3Cc3ccccn3)nc12` [Example Compound No. 15, N-((3-fluoropyridin-2-yl)methyl)-2-(2-((2-(1-(pyridin-2-ylmethyl)-1H-benzo[d]imidazol-2-yl)ethyl)amino)ethyl)oxazolo[4,5-c]pyridin-4-amine] is 9500 nM.
The figure for `Fc1cccnc1CNc1nccc2oc(CCNCCc3nc4ccccc4n3CCc3ccccc3)nc12` [Example Compound No. 16, N-((3-fluoropyridin-2-yl)methyl)-2-(2-((2-(1-phenethyl-1H-benzo[d]imidazol-2-yl)ethyl)amino)ethyl)oxazolo[4,5-c]pyridin-4-amine] is 40200 nM; for `Fc1cccnc1CNc1nccc2oc(CCNCCc3nc4ccccc4n3-c3ccccc3)nc12` [Example Compound No. 17, N-((3-fluoropyridin-2-yl)methyl)-2-(2-((2-(1-phenyl-1H-benzo[d]imidazol-2-yl)ethyl)amino)ethyl)oxazolo[4,5-c]pyridin-4-amine] it is 25 nM; for `CN1CCN(CCn2c(CCNCCc3nc4c(NCc5ncccc5F)nccc4o3)nc3cc4c(cc32)OCCO4)CC1` [Example Compound No. 18, N-((3-fluoropyridin-2-yl)methyl)-2-(2-((2-(1-(2-(4-methylpiperazin-1-yl)ethyl)-6,7-dihydro-1H-[1,4]dioxino[2′,3′:4,5]benzo[1,2-d]imidazol-2-yl)ethyl)amino)ethyl)oxazolo[4,5-c]pyridin-4-amine] it is 20000 nM.
On to `CCn1c(CCNCCc2nc3c(NCc4ncccc4F)nccc3o2)nc2ccccc21` [Example Compound No. 19, 2-(2-((2-(1-ethyl-1H-benzo[d]imidazol-2-yl)ethyl)amino)ethyl)-N-((3-fluoropyridin-2-yl)methyl)oxazolo[4,5-c]pyridin-4-amine], for which the IC50 worked out at 18 nM.
The result for `CN(C)CCn1c(CCNCCc2nc3c(NCc4ncccc4F)nccc3o2)nc2ccccc21` [Example Compound No. 20, 2-(2-((2-(1-(2-(dimethylamino)ethyl)-1H-benzo[d]imidazol-2-yl)ethyl)amino)ethyl)-N-((3-fluoropyridin-2-yl)methyl)oxazolo[4,5-c]pyridin-4-amine] reads 20000 nM.
On to `CCn1c(CCNCCc2nc3c(NCc4ncccc4F)nccc3o2)nc2cc3c(cc21)OCCO3` [Example Compound No. 21, 2-(2-((2-(1-ethyl-6,7-dihydro-1H-[1,4]dioxino[2′,3′:4,5]benzo[1,2-d]imidazol-2-yl)ethyl)amino)ethyl)-N-((3-fluoropyridin-2-yl)methyl)oxazolo[4,5-c]pyridin-4-amine formate], for which the IC50 was determined as 31 nM.
